From article PMC11474028, “Lipopeptide antibiotics disrupt interactions of undecaprenyl phosphate with UptA” (Proceedings of the National Academy of Sciences of the …, 2024) come the findings set out here.

Molecules are shown by their SMILES. Entries after “also recorded” stand apart in the source; their conditions may differ.

Set-up in all cases: species or system Bacillus subtilis
The subject of one test is UptA Q64A. As to the kind of experiment: Native MS of C55-P binding to UptA mutant Q64A. Conditions: 5 µM protein, 10 µM C55-P, pH 8.02, 0.05% LDAO, 200 mM ammonium acetate, collisional activation 100 V; three biological replicates. The source says:
(§1) Conserved arginine residues in the putative membrane reentrant loops of E. coli DedA proteins YqjA (R130) and YghB (R136) are important for the cellular role of these proteins ([36]). […] How these residues impact substrate interactions, however, is not known. Based on the model structure of UptA predicted by AlphaFold, the R112 residue should engage Q64 while R118 is able to form hydrogen bonds with E32, H119, and W146 to potentially stabilize the membrane reentrant loops (Fig. 3A). To test for the impact of these residues on C55-P binding, we generated the E32A, Q64A, R112A, R118A, H119A, and W146A UptA single mutants. After purification of the proteins, using the same protocol as the wild type (WT) (Materials and Methods and SI Appendix, Fig. S5), we equilibrated aliquots of each protein variant (5 µM) with C55-P (10 µM) and recorded spectra using the same instrument settings. […] We additionally generated a double mutant R112E/R118E in which the polarity of both native arginine residues in the wild type are reversed.
(§2) Expression and purification of UptA
(§3) Plasmids were used to transform chemically competent E. coli C43(DE3) cells (Lucigen) and selected on LB/Agar containing 100 μg/ml ampicillin at 37 °C. Single colonies were used to inoculate 60 mL LB containing 100 μg/ml ampicillin and were grown at 37 °C overnight for 16 h. […]

The subject of another test is UptA H119A. Kind of test: Native MS of C55-P binding to UptA mutant H119A. The note with it: 5 µM protein, 10 µM C55-P, pH 8.02, 0.05% LDAO, 200 mM ammonium acetate, collisional activation 100 V; three biological replicates.
Excerpt: as §1, §2, §3

For another test, the system named is UptA E32A. As to the kind of experiment: Native MS of C55-P binding to UptA mutant E32A. Conditions: 2.5 µM E32A UptA and 10 µM C55-P, pH 8.0.
Excerpt: Conserved arginine residues in the putative membrane reentrant loops of E. coli DedA proteins YqjA (R130) and YghB (R136) are important for the cellular role of these proteins ([36]). […] How these residues impact substrate interactions, however, is not known. Based on the model structure of UptA predicted by AlphaFold, the R112 residue should engage Q64 while R118 is able to form hydrogen bonds with E32, H119, and W146 to potentially stabilize the membrane reentrant loops (Fig. 3A). To test for the impact of these residues on C55-P binding, we generated the E32A, Q64A, R112A, R118A, H119A, and W146A UptA single mutants. After purification of the proteins, using the same protocol as the wild type (WT) (Materials and Methods and SI Appendix, Fig. […]
as §2, §3
The digestion mixture was subsequently incubated with 2-mL bed volume of nickel nitriloacetic acid (NTA) agarose resin to remove His-tagged GFP and TEV protease. […] Concentration was measured using a Biomate UV spectrophotometer at 280 nm using extinction coefficients calculated from their predicted amino […]

The next test relates to UptA R112A/R118A. Kind of test: Native MS of C55-P binding to UptA double mutant R112A/R118A. Conditions: 5 µM protein, 10 µM C55-P, pH 8.02, 0.05% LDAO, 200 mM ammonium acetate, 100 V; mean of three biological replicates.
In the next test the test system is UptA R118A/R119A. Kind of test: Native MS of C55-P binding to UptA double mutant R118A/R119A. The note with it: 5 µM protein, 10 µM C55-P, pH 8.02, 0.05% LDAO, 200 mM ammonium acetate, 100 V; mean of three biological replicates.
In the next test the test system is UptA R112E/R118E. As to the kind of experiment: Native MS of C55-P binding to UptA double mutant R112E/R118E. The note with it: 5 µM protein, 10 µM C55-P, pH 8.02, 0.05% LDAO, 200 mM ammonium acetate, 100 V; mean of three biological replicates.
Excerpt: as §1, §2, §3

On to `CC(C)=CCC/C(C)=C/CC/C(C)=C/CC/C(C)=C\CC/C(C)=C\CC/C(C)=C\CC/C(C)=C\CC/C(C)=C\CC/C(C)=C\CC/C(C)=C\CC/C(C)=C\COP(=O)(O)O` [C55-P, undecaprenyl phosphate], for which, in the test with UptA Q64A, the “reduction in C55-P binding intensity compared to wild type, Q64A (in words)” value is reported as “modest reduction”. The “reduction in C55-P binding intensity compared to wild type, H119A (in words)” value in the test with UptA H119A is given as “modest reduction”. Moreover, in the test with UptA E32A, the “C55-P binding to E32A UptA dimers versus monomers (in words)” value is given as “more significantly than the monomeric form; also recorded: relative intensity of ligand-bound dimers is significantly higher than the ligand-bound monomers” and the “impact of C55-P binding on monomer–dimer ratio of E32A UptA (in words)” value is recorded as “modest increase in the dimer fraction; also recorded: only a modest impact on the monomer–dimer ratios”. Besides, the “reduction in C55-P binding, R112A/R118A” value in the test with UptA R112A/R118A turned out to be 43%. Besides, the “reduction in C55-P binding, R118A/R119A” value with UptA R118A/R119A stood at 46%. Moreover, the “reduction in the intensity of C55-P binding compared to wild type, R112E/R118E” value in the test on UptA R112E/R118E was 63%.
